This note sets out measurements from a melting point compilation (Tetko et al.; mined from patent text by program, amines drawn as free bases though some values may be those of a salt).

The melting point is the temperature of the solid-liquid transition. Take `CCOC(=O)Cc1nn(CC(=S)Nc2cc(C(F)(F)F)ccc2Br)c(=O)c2ccccc12`: the melting point turned out to be 160 °C.

Consider `CCN1CN(c2ccc(Cl)cc2)c2ncccc2C1=O`, for which the melting point was 100 to 101 °C.

In the case of `CCCC1(CCC)c2cc(-c3ccc(Br)s3)ccc2-c2ccc(-c3ccc(Br)s3)cc21`, the melting point was in the range of 160 to 165 °C.

Regarding `O=C(CBr)CCc1ccc(Br)cc1`, the melting point fell in the range of 63 to 64 °C.

The compound `CCOP(=O)(CCCN)OCC` came in with a melting point of 54 °C.

The compound `CS(=O)(=O)c1ccc(-c2cnn(Cc3ccccc3)c(=S)c2-c2ccc(F)cc2)cc1` had a melting point of 88 to 90 °C.

On to `CCCc1c(O)ccc2c1OCCC2=O`, for which the melting point lay in the range of 126 to 129 °C.

`Cc1csc2c1c(C(=O)c1ccc(Cl)cc1)cn2C(C)C(=O)O` (centres undefined) yielded a melting point of 149 °C.

`COc1ccc(CC(C)(C)NC(=O)N(C)O)cc1OC` registered a melting point of 77 to 78 °C.

Turning to `CC(C)(C)OC(=O)N(CCCC(=O)NO)Cc1cc2nc(-c3cccc4[nH]ncc34)nc(N3CCOCC3)c2s1`, the melting point lay within 149 to 152 °C.

Compound `CCOCc1nc2c(N)nc3cc(Br)ccc3c2n1CC1CCN(C(=O)N2CCOCC2)CC1` displayed a melting point of 198 to 199 °C.

`Cc1c(CC(=O)O)c2cc(OCc3csc(-c4ccccc4)n3)ccc2n1Cc1csc(-c2ccc(Cl)cc2)n1`: the melting point fell in the range of 178 to 180 °C.

`Cc1c(-c2ccc3sc(=O)[nH]c3c2)nc2ncccn12` registered a melting point above 290 °C.

As to `COc1cc2c3c(nc4ccccc4c3c1)-c1ccc(Cl)cc1N2`, the melting point lay in the range of 240 to 242 °C.

For the compound `COc1ccc(N(C(=O)CN2C(=O)C(Cc3n[nH]c4ccccc34)C(=O)N(c3cccnc3)c3ccccc32)C(C)C)cc1` (single isomer, unassigned; (+)), the melting point lay within 214 to 215 °C.

Consider `CNC(=O)c1oc(C(C)(C)C)cc1NC(=O)Nc1ccc(F)cc1`, for which the melting point was in the range of 109 to 111 °C.

In turn, `N#CCC(C#N)=NNc1c(Cl)cc(C(F)(F)F)cc1Cl` gave a melting point of 80 to 82 °C.

For the compound `CON1CCn2c(OC(=O)C(C)(C)C)c(-c3c(C)cc(C)cc3C)c(=O)n2CC1`, the melting point lay within 147 to 148 °C.

As to `COc1cc(C(F)(F)F)cc(OC)n1`, the melting point was in the range of 26 to 27 °C.

On to `O=C1NCCN1Cc1ccc(Cl)cc1`, for which the melting point was in the range of 164 to 166 °C.

In turn, `CC(CCN(C)c1ccccc1)=NO` yielded a melting point of 46 to 49 °C.

Turning to `CSc1nnc(-c2ccc3ccccc3c2)n1C`, the melting point was in the range of 177 to 179 °C.

`COc1cccc(-c2ccc3c(c2)C2(CCCCC2)C(=NO)N3)c1` displayed a melting point of 101 to 104 °C.

As for `Cn1nc(-c2cnc3[nH]cc(C(=O)NC4CCCOC4)c3n2)c2ccc(Cl)cc21` (centres undefined), the melting point lay in the range of 320 to 323 °C.

`CCCCc1ccc(C#CC(C)N(O)C(N)=O)s1` (centres undefined) yielded a melting point of 104 to 106 °C.

`CN(C)C(=O)C(Br)Cn1ccc(-c2ccccc2)n1` (centres undefined) had a melting point of 93 to 94 °C.

`Cc1cccc(-n2c(-c3sc(Nc4ccc(Cl)cc4)nc3-c3ccccc3)nc3ccccc3c2=O)c1` came in with a melting point of 233 to 235 °C.

The compound `[N-]=[N+]=NC1CC(n2cc(C=CBr)c(=O)[nH]c2=O)OC1CCl` (centres undefined) showed a melting point of 124 to 125 °C.

`O=C(O)C(=NOC1CCCC1)c1ccco1` displayed a melting point of 96.6 to 97.7 °C.

`Cc1cccc2c(-c3ccc(C(F)(F)F)cc3)onc12` returned a melting point of 118 to 119 °C.

With `OC(Cc1ccc(Cl)cc1)(Cn1cncn1)Cn1cncn1`, the melting point fell in the range of 116 to 118 °C.

Take `O=C(O)c1ccc(Oc2nccs2)cc1`: the melting point was in the range of 162 to 163 °C.

The compound `CC(Nc1nc(-c2ccccc2)cs1)c1ccc(COc2ccc(CC(=O)O)cc2)cc1` (centres undefined) gave a melting point of 116 to 118 °C.

`COc1ccc(Cn2cnc(C(=N)C#N)c2N)cc1` gave a melting point of 92 to 94 °C.

Take `CNC(=O)Nc1cc(-c2ccc(S(C)(=O)=O)cc2)c(-c2ccc(F)cc2)s1`: the melting point is 70 to 75 °C.

Regarding `CCOC(=O)C(C)(C(=O)OCC)c1ccc(N)c(C(C(=O)OC)C(=O)OC)c1`, the melting point was 91 to 92 °C.

Compound `COC(=O)Cn1c(C(=O)N(CCC2CCCCC2)c2nc(-c3cc(OC)c(C)cc3OC)cs2)cc2ccccc21` gave a melting point of 144 to 146 °C.

`CC(C)C1COc2ccccc2O1` (centres undefined): the melting point is 124 to 125 °C.

As to `CN1C(=O)CC[C@]2(C)c3ccc(-c4cccc(Cl)c4Cl)cc3CC[C@@H]12`, the melting point lay in the range of 131 to 134 °C.

As for `O=P(O)(O)C(O)(Cn1ccnc1)P(=O)(O)O`, the melting point fell in the range of 235 to 241 °C.

On to `COC(=O)c1c(O)cccc1OCCCCNC(=O)CCc1ccc(N2CC(=O)NS2(=O)=O)c(O)c1`, for which the melting point is 85 to 90 °C.

`N#Cc1c(SSc2ccc([N+](=O)[O-])cc2C(Cl)(Cl)Cl)ccc2ccccc12` had a melting point of 170 °C.

For `O=c1c2ccccc2c(-c2ccc(Cl)cc2)nn1CCc1ccncc1`, the melting point lay within 142 to 144 °C.

Compound `CC(C)(C)c1cc(NC(=O)Nc2csc(-c3cccnc3)n2)no1` gave a melting point of 230 to 232 °C.

`CCCCCCCCCCCCn1nnc(C(=O)O)n1` displayed a melting point of 122 to 124 °C.

In turn, `CCOC(=O)C(Cc1ccc(C(F)(F)F)cc1)C(=O)c1ccc(Oc2ccccc2)cc1` (centres undefined) yielded a melting point of 67 to 68 °C.

`CC1=C(C(=O)OCCN(C)Cc2ccccc2)C(c2cccc([N+](=O)[O-])c2)C(P(=O)(OC(C)C)OC(C)C)=C(C)N1` (centres undefined) displayed a melting point of 113 to 115 °C.

For the compound `Cn1c(=O)c2c(ncn2Cc2noc(CCl)n2)n(C)c1=O`, the melting point was in the range of 146 to 148 °C.

`CCCc1nc(-n2cccc2)c(CO)[nH]1` came in with a melting point of 155 to 158 °C.

Regarding `OCCCc1ccc(OCc2ccccc2)cc1`, the melting point is 63 to 64 °C.

Consider `FC(F)(F)c1cccc(N2CCC(N=Cc3ccccn3)=N2)c1`, for which the melting point worked out at 156 °C.

Consider `O=C(CC(Cc1cccc2ccccc12)C(=O)N[C@@H](Cc1c[nH]cn1)C(=O)N[C@H](CO)Cc1ccccc1)NCCc1ccccc1` (some centres undefined), for which the melting point is 106 to 109 °C.

The compound `COc1cc(OC)cc(C(=O)P2(=O)Oc3ccccc3-c3ccccc32)c1` (centres undefined) yielded a melting point of 140 to 142 °C.

In the case of `CC(C)(N)c1ccc(-c2nc(Nc3ccc(CCN4CCOCC4)cc3)ncc2Cl)cc1`, the melting point lay within 166 to 173 °C.

In turn, `CCN(CC)CCNC(=O)c1[nH]c(-c2ccc(Cl)cc2)c2ccccc12` had a melting point of 51 to 54 °C.

The compound `COc1ccc(C(=O)c2c(N)sc3c2CCN(C(=O)c2ccc(Cl)cc2)C3)cc1OC` yielded a melting point of 138 to 140 °C.

The compound `CCCc1c(C(=O)C(C)C)c2ccc(C(N)=O)cc2n1Cc1ccc(F)cc1Cl` returned a melting point of 192 to 193 °C.

`N#Cc1cnn(-c2ccc(OC(F)(F)F)cc2Cl)c1N` showed a melting point of 115 °C.

`CC(C(=O)N(C)C)n1cc(C#N)c(-c2ccccc2)n1` (centres undefined) gave a melting point of 143 to 146 °C.

`COc1ccc(-c2ccnc3c(C(N)=O)ncn23)cc1` returned a melting point of 246 to 249 °C.

The compound `COc1ccc2cc(-n3cnnc3)cc(C)c2n1` came in with a melting point of 157 to 159 °C.

Take `O=C1CC(c2ccccc2)c2cc(C(=O)c3ccc(Cl)cc3)ccc2N1` (centres undefined): the melting point came to 204 °C.

Regarding `CC(C)C[C@H](NS(=O)(=O)c1cccc2ccccc12)C(=O)N[C@H]1CCCOC1O` (some centres undefined), the melting point was 159 to 161 °C.

`CCOc1ccc2nc(N)c3nc4n(c3c2c1)C(C)COC4` (centres undefined) displayed a melting point of 187 to 188 °C.

Consider `O=C1c2ccccc2C(=O)N1c1ccc(S(=O)(=O)NCCC2(C(=O)NCC(F)(F)F)c3ccccc3-c3ccccc32)cc1`, for which the melting point lay in the range of 235 to 237 °C.

Consider `CC1(C)CCC(C)(C)c2cc(C=C=Cc3ccc(C(=O)O)cc3)ccc21`, for which the melting point was in the range of 227 to 228 °C.

Take `Clc1ccc(C(OCCN2CCOCC2)(c2ccc(Cl)cc2)c2ccc(Cl)cc2)cc1`: the melting point lay in the range of 151 to 153 °C.

Compound `N#Cc1ccc(COc2ccc3c(c2)CCNC3=O)cc1` returned a melting point of 158 to 160 °C.

`O=C1N=Nc2ccncc21` displayed a melting point above 350 °C.

Consider `CCCCCCCCCCCCP(=O)(O)CCCNC(=O)OCc1ccccc1`, for which the melting point lay in the range of 115 to 116 °C.

In turn, `Cc1ccc2c(c1)C=Cc1cc(C)ccc1C2c1cn(-c2ccnc(NCC(=O)O)n2)c(=O)[nH]c1=O` registered a melting point of 260 to 263 °C.

Take `COC(=O)[C@H]1[C@@H](NC(=O)COc2ccccc2)C(=O)N1Cc1ccc(OC)cc1OC` (relative stereo): the melting point turned out to be 116 °C.

Compound `N=C(N)NCCCOc1ccc2c(c1)CC(CC(=O)O)C(=O)N2` (centres undefined) returned a melting point of 178 to 179 °C.

With `C#C[C@]1(C)CCc2c(C)c(O)c(C)c(C)c2O1`, the melting point lay within 81 to 83 °C.

`CCOCc1nc2c(N)nc3ccccc3c2n1NCC(C)C` displayed a melting point of 137 to 140 °C.

On to `COC(=O)C(SC)c1ccc(N2C(=O)c3ccccc3C2=O)cc1` (centres undefined), for which the melting point was 168 to 169 °C.

`CC(C)N(CCOC1CCCC2Oc3ccccc3OC12)C(C)C` (centres undefined) registered a melting point of 63.4 °C.

In the case of `CCOC(=O)c1c(N(C(C)=O)C(C)=O)c2cccnc2n(CC)c1=O`, the melting point lay in the range of 133 to 135 °C.

Regarding `CN(C)C(=O)Sc1ccc(CC#N)cc1`, the melting point was 97 to 99 °C.

`CCCCCCCCOCC(O)COc1ccc(-n2nc3ccccc3n2)c(O)c1` (centres undefined): the melting point lay within 51 to 55 °C.

In turn, `COC(=O)C[C@]1(C)[C@@H](O)CC[C@H]1C1CCc2cc(OC)ccc2C1` (some centres undefined) registered a melting point of 86 to 87 °C.

For the compound `CN(c1cc(=S)ss1)C1CCCCC1`, the melting point amounted to 107 °C.

The compound `COc1c(N2CCNC(CF)C2)c(F)cc2c(=O)c(C(=O)O)cn([C@@H]3C[C@@H]3F)c12` (some centres undefined) came in with a melting point of 153 to 156 °C.

On to `COC(=O)[C@@H](C)Nc1ncccc1[N+](=O)[O-]`, for which the melting point lay in the range of 39 to 40 °C.

Turning to `Cc1nc2sccn2c(=O)c1CCN1CCC(=C(c2ccc(F)cc2)c2ccc(F)cc2)CC1`, the melting point came out at 146 °C.

Regarding `CCN(c1ccc(C(=O)O)cc1)c1cc2c3c(c1)CCCC3(C)CCC2`, the melting point was 279 to 280 °C.

`Cc1cc(C(C)(C)C)c(O)c([N+](=O)[O-])c1[N+](=O)[O-]` showed a melting point of 104 to 105 °C.

Turning to `Cc1cccc(C)c1N(CC(=O)N(C)C)C(=O)CCl`, the melting point was in the range of 74 to 76 °C.

As to `O=S(=O)(NCCCCCCNc1nsc2nccn12)c1cccc2ccccc12`, the melting point fell in the range of 95 to 97 °C.
